In US6664231B1, “Anti-fungal peptides” (priority 1993, dated 2003):
Square brackets hold non-standard residues; d marks the D form. Peptide text beside a SMILES is read from it. Phe(4-NH2) = Nc1ccc(C[C@H](N)C(=O)O)cc1; 1Nal = N[C@@H](Cc1cccc2ccccc12)C(=O)O; 2Nal = N[C@@H](Cc1ccc2ccccc2c1)C(=O)O; d1Nal = N[C@H](Cc1cccc2ccccc12)C(=O)O; d2Nal = N[C@H](Cc1ccc2ccccc2c1)C(=O)O; Cha = N[C@@H](CC1CCCCC1)C(=O)O

Tested on: C. albicans (CA-1, Strain SLU-1)
Assay: Radial diffusion assay
Assay type: cell-based, Candida albicans
Conditions: pmoles of peptide added to well to achieve a 30 mm^2 zone, PROBIT analysis, crude or purified (P′) peptide
Procedure: In the radial diffusion assay procedures, the CA-1 cultures and peptide solutions were prepared as in the broth assay procedure described above. Ten mL of molten underlayer agarose comprising 3% Sabouraud Dextrose broth, 1% agarose (Pharmacia, Piscataway, N.J.), 0.02% Tween 20, and 10 mM sodium phosphate at pH 7.4, was added to polystyrene tubes and maintained in a 56° C. water bath until the addition of yeast. Tubes were cooled to approximately 45° C., yeast were added to give a final concentration of 1×10^6 CFU/mL, and the tubes were mixed again by inverting. The contents were poured into level square petri dishes and distributed evenly. […] A series of wells were punched into the hardened agarose using a sterile 3 mm punch attached to a vacuum apparatus.
Peptides to be assayed were 2-fold serially diluted in Dulbecco's PBS (D-PBS) starting from a concentration of approximately 1 mg/mL. Five μL of each dilution were added to each well and the plates were incubated at 37° C. for 3 hours. An overlayer of 10 mL of molten agarose comprising 6% Sabouraud Dextrose broth, 1% agarose, and 10 mM sodium phosphate, pH 7.4, (at approximately 45° C.) was then added and plates were incubated overnight at 37° C. Following this overnight incubation, a dilute Coomassie solution was poured into the plates and allowed to stain for 24 hours.
Clear zones of growth inhibition around each well were measured with calipers. The actual area of growth inhibition (mm^2) was calculated by subtracting the area of the well. Table 1 below sets out the results of the radial diffusion assays for tested peptides in terms of the number of picomoles (pmol) of peptide required to establish a 30 mm^2 area of growth inhibition calculated by PROBIT analysis (e.g., calculated from regression of the linear portion of log-concentration dose-response curve, log pmol/well vs. net area of inhibition).

Structure (SMILES): CC[C@H](C)[C@H](NC(=O)[C@H](CC(C)C)NC(=O)[C@H](Cc1cccc2ccccc12)NC(=O)[C@H](CCCCN)NC(=O)[C@@H](NC(=O)[C@H](CCCCN)NC(=O)[C@H](CO)NC(=O)[C@@H](N)CCCCN)C(C)C)C(=O)N[C@@H](CCC(N)=O)C(=O)N[C@@H](CC(C)C)C(=O)N[C@@H](Cc1ccccc1)C(=O)N[C@@H](Cc1c[nH]cn1)C(=O)N[C@@H](CCCCN)C(=O)N[C@@H](CCCCN)C(N)=O [XMP.116] (H-KSKVK[1Nal]LIQLFHKK-NH2)
- C. albicans pmol/30 mm^2 zone: 670 pmol/30 mm^2 zone

Structure (SMILES): CC[C@H](C)[C@H](NC(=O)[C@H](CC(C)C)NC(=O)[C@H](Cc1c[nH]c2ccccc12)NC(=O)CNC(=O)[C@@H](NC(=O)[C@H](CCCCN)NC(=O)[C@H](CO)NC(=O)[C@@H](N)CCCCN)C(C)C)C(=O)N[C@@H](Cc1ccc(N)cc1)C(=O)N[C@@H](CC(C)C)C(=O)N[C@@H](Cc1ccccc1)C(=O)N[C@@H](Cc1c[nH]cn1)C(=O)N[C@@H](CCCCN)C(=O)N[C@@H](CCCCN)C(N)=O [XMP.123] (H-KSKVGWLI[Phe(4-NH2)]LFHKK-NH2)
- C. albicans pmol/30 mm^2 zone: 1721 pmol/30 mm^2 zone

Structure (SMILES): CC[C@H](C)[C@H](NC(=O)[C@H](CC(C)C)NC(=O)[C@@H](Cc1c[nH]c2ccccc12)NC(=O)CNC(=O)[C@@H](NC(=O)[C@H](CCCCN)NC(=O)[C@H](CO)NC(=O)[C@@H](N)CCCCN)C(C)C)C(=O)N[C@@H](CCC(N)=O)C(=O)N[C@@H](CC(C)C)C(=O)N[C@@H](Cc1ccccc1)C(=O)N[C@@H](Cc1c[nH]cn1)C(=O)N[C@@H](CCCCN)C(=O)N[C@@H](CCCCN)C(N)=O [XMP.126] (H-KSKVG[dW]LIQLFHKK-NH2)
- C. albicans pmol/30 mm^2 zone: 1404 pmol/30 mm^2 zone

Structure (SMILES): CC[C@H](C)[C@H](NC(=O)[C@H](CC(C)C)NC(=O)[C@@H](Cc1ccccc1)NC(=O)CNC(=O)[C@@H](NC(=O)[C@H](CCCCN)NC(=O)[C@H](CO)NC(=O)[C@@H](N)CCCCN)C(C)C)C(=O)N[C@@H](CCC(N)=O)C(=O)N[C@@H](CC(C)C)C(=O)N[C@@H](Cc1ccccc1)C(=O)N[C@@H](Cc1c[nH]cn1)C(=O)N[C@@H](CCCCN)C(=O)N[C@@H](CCCCN)C(N)=O [XMP.128]
- C. albicans pmol/30 mm^2 zone: 1179 pmol/30 mm^2 zone

Structure (SMILES): CC[C@H](C)[C@H](NC(=O)[C@H](CC(C)C)NC(=O)[C@@H](Cc1cccc2ccccc12)NC(=O)CNC(=O)[C@@H](NC(=O)[C@H](CCCCN)NC(=O)[C@H](CO)NC(=O)[C@@H](N)CCCCN)C(C)C)C(=O)N[C@@H](CCC(N)=O)C(=O)N[C@@H](CC(C)C)C(=O)N[C@@H](Cc1ccccc1)C(=O)N[C@@H](Cc1c[nH]cn1)C(=O)N[C@@H](CCCCN)C(=O)N[C@@H](CCCCN)C(N)=O [XMP.129] (H-KSKVG[d1Nal]LIQLFHKK-NH2)
- C. albicans pmol/30 mm^2 zone: 2117 pmol/30 mm^2 zone

Structure (SMILES): CC[C@H](C)[C@H](NC(=O)[C@H](CC(C)C)NC(=O)[C@H](Cc1ccc2ccccc2c1)NC(=O)CNC(=O)[C@@H](NC(=O)[C@H](CCCCN)NC(=O)[C@H](CO)NC(=O)[C@@H](N)CCCCN)C(C)C)C(=O)N[C@@H](CCC(N)=O)C(=O)N[C@@H](CC(C)C)C(=O)N[C@@H](Cc1ccccc1)C(=O)N[C@@H](Cc1c[nH]cn1)C(=O)N[C@@H](CCCCN)C(=O)N[C@@H](CCCCN)C(N)=O [XMP.130] (H-KSKVG[2Nal]LIQLFHKK-NH2)
- C. albicans pmol/30 mm^2 zone: 1159 pmol/30 mm^2 zone

Structure (SMILES): CC[C@H](C)[C@H](NC(=O)[C@H](CC(C)C)NC(=O)[C@@H](Cc1ccc2ccccc2c1)NC(=O)CNC(=O)[C@@H](NC(=O)[C@H](CCCCN)NC(=O)[C@H](CO)NC(=O)[C@@H](N)CCCCN)C(C)C)C(=O)N[C@@H](CCC(N)=O)C(=O)N[C@@H](CC(C)C)C(=O)N[C@@H](Cc1ccccc1)C(=O)N[C@@H](Cc1c[nH]cn1)C(=O)N[C@@H](CCCCN)C(=O)N[C@@H](CCCCN)C(N)=O [XMP.131] (H-KSKVG[d2Nal]LIQLFHKK-NH2)
- C. albicans pmol/30 mm^2 zone: 2493 pmol/30 mm^2 zone

Structure (SMILES): CC[C@H](C)[C@H](NC(=O)[C@H](CC(C)C)NC(=O)[C@H](Cc1c[nH]c2ccccc12)NC(=O)[C@H](Cc1ccc(N)cc1)NC(=O)[C@@H](NC(=O)[C@H](CCCCN)NC(=O)[C@H](CO)NC(=O)[C@@H](N)CCCCN)C(C)C)C(=O)N[C@@H](CCC(N)=O)C(=O)N[C@@H](CC(C)C)C(=O)N[C@@H](Cc1ccccc1)C(=O)N[C@@H](Cc1c[nH]cn1)C(=O)N[C@@H](CCCCN)C(=O)N[C@@H](CCCCN)C(N)=O [XMP.134]
- C. albicans pmol/30 mm^2 zone: 1255 pmol/30 mm^2 zone

Structure (SMILES): CC[C@H](C)[C@H](NC(=O)[C@H](CC(C)C)NC(=O)[C@H](CC1CCCCC1)NC(=O)CNC(=O)[C@@H](NC(=O)[C@H](CCCCN)NC(=O)[C@H](CO)NC(=O)[C@@H](N)CCCCN)C(C)C)C(=O)N[C@@H](CCC(N)=O)C(=O)N[C@@H](CC(C)C)C(=O)N[C@@H](Cc1ccccc1)C(=O)N[C@@H](Cc1c[nH]cn1)C(=O)N[C@@H](CCCCN)C(=O)N[C@@H](CCCCN)C(N)=O [XMP.144] (H-KSKVG[Cha]LIQLFHKK-NH2)
- C. albicans pmol/30 mm^2 zone: 695 pmol/30 mm^2 zone

Structure (SMILES): CC[C@H](C)[C@H](NC(=O)[C@H](CC(C)C)NC(=O)[C@H](Cc1c[nH]c2ccccc12)NC(=O)CNC(=O)[C@@H](NC(=O)[C@H](CCCCN)NC(=O)[C@H](CO)NC(=O)[C@@H](N)CCCCN)C(C)C)C(=O)N[C@@H](CCC(N)=O)C(=O)N[C@@H](CC(C)C)C(=O)N[C@@H](Cc1ccccc1)C(=O)N[C@@H](Cc1cccc2ccccc12)C(=O)N[C@@H](CCCCN)C(=O)N[C@@H](Cc1cccc2ccccc12)C(N)=O [XMP.146] (H-KSKVGWLIQLF[1Nal]K[1Nal]-NH2)
- C. albicans pmol/30 mm^2 zone: b (No detectable activity up to 5 μg/well)

Structure (SMILES): CC[C@H](C)[C@H](NC(=O)[C@H](CC(C)C)NC(=O)[C@H](Cc1cccc2ccccc12)NC(=O)CNC(=O)[C@@H](NC(=O)[C@H](CCCCN)NC(=O)[C@H](CO)NC(=O)[C@@H](N)CCCCN)C(C)C)C(=O)N[C@@H](CCC(N)=O)C(=O)N[C@@H](CC(C)C)C(=O)N[C@@H](Cc1ccccc1)C(=O)N[C@@H](Cc1cccc2ccccc12)C(=O)N[C@@H](CCCCN)C(=O)N[C@@H](CCCCN)C(N)=O [XMP.148] (H-KSKVG[1Nal]LIQLF[1Nal]KK-NH2)
- C. albicans pmol/30 mm^2 zone: >2805 pmol/30 mm^2 zone

Structure (SMILES): CC[C@H](C)[C@H](NC(=O)[C@H](CC(C)C)NC(=O)[C@H](Cc1cccc2ccccc12)NC(=O)CNC(=O)[C@@H](NC(=O)[C@H](CCCCN)NC(=O)[C@H](CO)NC(=O)[C@@H](N)CCCCN)C(C)C)C(=O)N[C@@H](CCC(N)=O)C(=O)N[C@@H](CC(C)C)C(=O)N[C@@H](Cc1ccccc1)C(=O)N[C@@H](Cc1c[nH]cn1)C(=O)N[C@@H](CCCCN)C(=O)N[C@@H](Cc1cccc2ccccc12)C(N)=O [XMP.222] (H-KSKVG[1Nal]LIQLFHK[1Nal]-NH2)
- C. albicans pmol/30 mm^2 zone: >2,610 pmol/30 mm^2 zone

Structure (SMILES): CC[C@H](C)[C@H](NC(=O)[C@H](CC(C)C)NC(=O)[C@H](Cc1cccc2ccccc12)NC(=O)CNC(=O)[C@@H](NC(=O)[C@H](CCCCN)NC(=O)[C@H](CO)NC(=O)[C@@H](N)CCCCN)C(C)C)C(=O)N[C@@H](CCC(N)=O)C(=O)N[C@@H](Cc1cccc2ccccc12)C(=O)N[C@@H](Cc1ccccc1)C(=O)N[C@@H](Cc1c[nH]cn1)C(=O)N[C@@H](CCCCN)C(=O)N[C@@H](CCCCN)C(N)=O [XMP.223] (H-KSKVG[1Nal]LIQ[1Nal]FHKK-NH2)
- C. albicans pmol/30 mm^2 zone: b (No detectable activity up to 5 μg/well)

Structure (SMILES): CC[C@H](C)[C@H](NC(=O)[C@H](CC(C)C)NC(=O)[C@H](Cc1cccc2ccccc12)NC(=O)CNC(=O)[C@@H](NC(=O)[C@H](CCCCN)NC(=O)[C@H](CO)NC(=O)[C@@H](N)CCCCN)C(C)C)C(=O)N[C@@H](Cc1ccc(N)cc1)C(=O)N[C@@H](CC(C)C)C(=O)N[C@@H](Cc1ccccc1)C(=O)N[C@@H](Cc1c[nH]cn1)C(=O)N[C@@H](CCCCN)C(=O)N[C@@H](CCCCN)C(N)=O [XMP.224] (H-KSKVG[1Nal]LI[Phe(4-NH2)]LFHKK-NH2)
- C. albicans pmol/30 mm^2 zone: >2,443 pmol/30 mm^2 zone

Structure (SMILES): CC[C@H](C)[C@H](NC(=O)[C@H](CC(C)C)NC(=O)[C@H](Cc1cccc2ccccc12)NC(=O)[C@H](Cc1ccc(N)cc1)NC(=O)[C@@H](NC(=O)[C@H](CCCCN)NC(=O)[C@H](CO)NC(=O)[C@@H](N)CCCCN)C(C)C)C(=O)N[C@@H](CCC(N)=O)C(=O)N[C@@H](CC(C)C)C(=O)N[C@@H](Cc1ccccc1)C(=O)N[C@@H](Cc1c[nH]cn1)C(=O)N[C@@H](CCCCN)C(=O)N[C@@H](CCCCN)C(N)=O [XMP.225] (H-KSKV[Phe(4-NH2)][1Nal]LIQLFHKK-NH2)
- C. albicans pmol/30 mm^2 zone: >2,506 pmol/30 mm^2 zone
- C. albicans pmol/30 mm^2 zone (listed as XMP.225P′): >2,736 pmol/30 mm^2 zone

Structure (SMILES): CC[C@H](C)[C@H](NC(=O)[C@H](CC(C)C)NC(=O)[C@H](Cc1cccc2ccccc12)NC(=O)CNC(=O)[C@@H](NC(=O)[C@H](CCCCN)NC(=O)[C@H](CO)NC(=O)[C@@H](N)CCCCN)C(C)C)C(=O)N[C@@H](CCC(N)=O)C(=O)N[C@@H](CC(C)C)C(=O)N[C@@H](Cc1c[nH]c2ccccc12)C(=O)N[C@@H](Cc1c[nH]cn1)C(=O)N[C@@H](CCCCN)C(=O)N[C@@H](CCCCN)C(N)=O [XMP.226] (H-KSKVG[1Nal]LIQLWHKK-NH2)
- C. albicans pmol/30 mm^2 zone: >2,597 pmol/30 mm^2 zone
- C. albicans pmol/30 mm^2 zone (listed as XMP.226P′): >2,895 pmol/30 mm^2 zone
